Key:
TYK2 JH2 = target: T1, TYK2 JH2 (Homo sapiens, UniProt P29597); assay: TYK2 JH2 binding assay (KINOMEscan KdELECT competitive binding); settings: TYK2 JH2 domain, KINOMEscan KdELECT (Assay A); read-out: Biochemical TYK2_JH2_Kd
T1 construct: purchased DiscoverX (KINOMEscan KdELECT service); host or cells: E. coli BL21-derived (T7 phage display) or HEK-293
Method in brief: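 The assay measures displacement of DNA- or phage-tagged TYK2 pseudokinase domain from an affinity resin; compound binding lowers the amount captured, read by qPCR. Incubation lasts 1 h at room temperature.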

[1] = tested on: JAK1/TYK2 pSTAT5 (Tyr694/699) in THP-1 cell line; assay: IFNa-stimulated JAK1/TYK2 pSTAT5 (Tyr694/699) inhibition cellular assay, AlphaLISA; assay type: cell-based; settings: Homo sapiens; THP-1 cells, IFNa-stimulated, AlphaLISA (Assay B); read-out: Cellular THP1_IFNa-pSTATS_IC50
Method in brief: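 Compound dilutions were dispensed first, and HBSS-suspended THP-1 cells were added on top (final top concentration 10000 nM, 6-fold series). After 1 h at 37 °C, IFNa (100 ng/mL as added) was applied for 30 min. Cells were then lysed and pSTAT5 was quantified by AlphaLISA.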

T1 sequence (P29597 589-875 limits assumed): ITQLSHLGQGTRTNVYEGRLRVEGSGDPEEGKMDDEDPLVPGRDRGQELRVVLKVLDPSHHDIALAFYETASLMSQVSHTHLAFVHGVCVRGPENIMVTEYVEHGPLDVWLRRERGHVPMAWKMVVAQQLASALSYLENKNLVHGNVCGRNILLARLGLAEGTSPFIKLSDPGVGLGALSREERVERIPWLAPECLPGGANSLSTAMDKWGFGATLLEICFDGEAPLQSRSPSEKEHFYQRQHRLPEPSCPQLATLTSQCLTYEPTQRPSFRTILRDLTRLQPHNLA

| Kd (TYK2 JH2) [nM] | IC50 [1] [nM] | Compound |
| --- | --- | --- |
| ≤ 100 | > 500 | CNc1ncc(-c2ccncn2)c2cc(NC(=O)C3CC3)ncc12 [Example 50, N-(8-(methylamino)-5-(pyrimidin-4-yl)-2,7-naphthyridin-3-yl)cyclopropanecarboxamide] |
| 1000 to 10000 | > 500 | CNc1ncc(-c2ccnn2C2CCCCO2)c2cc(NC(=O)C3CC3)ncc12 (stereo not shown) [Example 51, N-(8-(methylamino)-5-(1-(tetrahydro-2H-pyran-2-yl)-1H-pyrazol-5-yl)-2,7-naphthyridin-3-yl)cyclopropanecarboxamide] |
| ≤ 100 | > 500 | CNc1ncc(-c2ccn[nH]2)c2cc(NC(=O)C3CC3)ncc12 [Example 52, N-(8-(methylamino)-5-(1H-pyrazol-5-yl)-2,7-naphthyridin-3-yl)cyclopropanecarboxamide] |
| ≤ 100 | > 500 | CNc1ncc(-c2cccc(-c3ncn(C)n3)c2)c2cc(NC(=O)C3CC3)ncc12 [Example 53, N-(5-(3-(1-methyl-1H-1,2,4-triazol-3-yl)phenyl)-8-(methylamino)-2,7-naphthyridin-3-yl)cyclopropanecarboxamide] |
| ≤ 100 | > 500 | CNc1ncc(-c2cccc(-c3ncnn3C)c2)c2cc(NC(=O)C3CC3)ncc12 [Example 54, N-(5-(3-(1-methyl-1H-1,2,4-triazol-5-yl)phenyl)-8-(methylamino)-2,7-naphthyridin-3-yl)cyclopropanecarboxamide] |
| ≤ 100 | > 500 | CNc1ncc(N2CCCC2)c2cc(NC(=O)C3CC3)ncc12 [Example 55, N-(8-(methylamino)-5-(pyrrolidin-1-yl)-2,7-naphthyridin-3-yl)cyclopropanecarboxamide] |
| ≤ 100 | > 500 | CNc1ncc(N2CCCCC2)c2cc(NC(=O)C3CC3)ncc12 [Example 56, N-(8-(methylamino)-5-(piperidin-1-yl)-2,7-naphthyridin-3-yl)cyclopropanecarboxamide] |
| ≤ 100 | > 500 | CNc1ncc(-n2cccn2)c2cc(NC(=O)C3CC3)ncc12 [Example 57, N-(8-(methylamino)-5-(1H-pyrazol-1-yl)-2,7-naphthyridin-3-yl)cyclopropanecarboxamide] |
| ≤ 100 | > 500 | CNc1ncc(-c2nccs2)c2cc(NC(=O)C3CC3)ncc12 [Example 63, N-(8-(methylamino)-5-(thiazol-2-yl)-2,7-naphthyridin-3-yl)cyclopropanecarboxamide] |
| ≤ 100 | ≤ 500 | CNc1ncc(-c2ccn(CC(F)(F)F)n2)c2cc(NC(=O)C3CC3)ncc12 [Example 64, N-(8-(methylamino)-5-(1-(2,2,2-trifluoroethyl)-1H-pyrazol-3-yl)-2,7-naphthyridin-3-yl)cyclopropanecarboxamide] |
| ≤ 100 | > 500 | CNc1ncc(-c2cscn2)c2cc(NC(=O)C3CC3)ncc12 [Example 65, N-(8-(methylamino)-5-(thiazol-4-yl)-2,7-naphthyridin-3-yl)cyclopropanecarboxamide] |
| ≤ 100 | > 500 | CNc1ncc(-c2ncc(C)s2)c2cc(NC(=O)C3CC3)ncc12 [Example 66, N-(8-(methylamino)-5-(5-methylthiazol-2-yl)-2,7-naphthyridin-3-yl)cyclopropanecarboxamide] |
| ≤ 100 | > 500 | CNc1ncc(C2=CCOCC2)c2cc(NC(=O)C3CC3)ncc12 [Example 67, N-(5-(3,6-dihydro-2H-pyran-4-yl)-8-(methylamino)-2,7-naphthyridin-3-yl)cyclopropanecarboxamide] |
| ≤ 100 | > 500 | CNc1ncc(C2CCOCC2)c2cc(NC(=O)C3CC3)ncc12 [Example 68, N-(8-(methylamino)-5-(tetrahydro-2H-pyran-4-yl)-2,7-naphthyridin-3-yl)cyclopropanecarboxamide] |
| ≤ 100 | > 500 | CNc1ncc(C2=CCCCC2)c2cc(NC(=O)C3CC3)ncc12 [Example 69, N-(5-(cyclohex-1-en-1-yl)-8-(methylamino)-2,7-naphthyridin-3-yl)cyclopropanecarboxamide] |
| ≤ 100 | > 500 | CNc1ncc(C2CCCCC2)c2cc(NC(=O)C3CC3)ncc12 [Example 70, N-(5-cyclohexyl-8-(methylamino)-2,7-naphthyridin-3-yl)cyclopropanecarboxamide] |
| ≤ 100 | > 500 | C=Cc1cnc(NC)c2cnc(NC(=O)C3CC3)cc12 [Example 71, N-(8-(methylamino)-5-vinyl-2,7-naphthyridin-3-yl)cyclopropanecarboxamide] |
| ≤ 100 | > 500 | CCc1cnc(NC)c2cnc(NC(=O)C3CC3)cc12 [Example 72, N-(5-ethyl-8-(methylamino)-2,7-naphthyridin-3-yl)cyclopropanecarboxamide] |

| Kd (TYK2 JH2) [nM] | IC50 [1] [nM] | Compound |
| --- | --- | --- |
| ≤ 100 | > 500 | C=C(C)c1cnc(NC)c2cnc(NC(=O)C3CC3)cc12 [Example 73, N-(8-(methylamino)-5-(prop-1-en-2-yl)-2,7-naphthyridin-3-yl)cyclopropanecarboxamide] |
| ≤ 100 | > 500 | CNc1ncc(C(C)C)c2cc(NC(=O)C3CC3)ncc12 [Example 74, N-(5-isopropyl-8-(methylamino)-2,7-naphthyridin-3-yl)cyclopropanecarboxamide] |
| ≤ 100 | > 500 | CNc1ncc(C2=CCOC2)c2cc(NC(=O)C3CC3)ncc12 [Example 75, N-(5-(2,5-dihydrofuran-3-yl)-8-(methylamino)-2,7-naphthyridin-3-yl)cyclopropanecarboxamide] |
| ≤ 100 | > 500 | CNc1ncc(C2CCOC2)c2cc(NC(=O)C3CC3)ncc12 (stereo not shown) [Example 76, N-(8-(methylamino)-5-(tetrahydrofuran-3-yl)-2,7-naphthyridin-3-yl)cyclopropanecarboxamide] |
| ≤ 100 | > 500 | CNc1ncc(C2=CCCOC2)c2cc(NC(=O)C3CC3)ncc12 [Example 77, N-(5-(5,6-dihydro-2H-pyran-3-yl)-8-(methylamino)-2,7-naphthyridin-3-yl)cyclopropanecarboxamide] |
| ≤ 100 | > 500 | CNc1ncc(C2CCCOC2)c2cc(NC(=O)C3CC3)ncc12 (stereo not shown) [Example 78, N-(8-(methylamino)-5-(tetrahydro-2H-pyran-3-yl)-2,7-naphthyridin-3-yl)cyclopropanecarboxamide] |
| ≤ 100 | > 500 | CNc1ncc(/C=C2\CCOC2)c2cc(NC(=O)C3CC3)ncc12 [Example 79, (E)-N-(5-((dihydrofuran-3(2H)-ylidene)methyl)-8-(methylamino)-2,7-naphthyridin-3-yl)cyclopropanecarboxamide] |
| ≤ 100 | > 500 | CNc1ncc(CC2CCOC2)c2cc(NC(=O)C3CC3)ncc12 (stereo not shown) [Example 80, N-(8-(methylamino)-5-((tetrahydrofuran-3-yl)methyl)-2,7-naphthyridin-3-yl)cyclopropanecarboxamide] |
| ≤ 100 | > 500 | CNc1ncc(-c2csc(C)n2)c2cc(NC(=O)C3CC3)ncc12 [Example 81, N-(8-(methylamino)-5-(2-methylthiazol-4-yl)-2,7-naphthyridin-3-yl)cyclopropanecarboxamide] |
| ≤ 100 | > 500 | CNc1ncc(-c2ccsn2)c2cc(NC(=O)C3CC3)ncc12 [Example 82, N-(5-(isothiazol-3-yl)-8-(methylamino)-2,7-naphthyridin-3-yl)cyclopropanecarboxamide] |
| ≤ 100 | > 500 | CNc1ncc(-c2cnsc2)c2cc(NC(=O)C3CC3)ncc12 [Example 83, N-(5-(isothiazol-4-yl)-8-(methylamino)-2,7-naphthyridin-3-yl)cyclopropanecarboxamide] |
| ≤ 100 | > 500 | CNc1ncc(-c2ccns2)c2cc(NC(=O)C3CC3)ncc12 [Example 84, N-(5-(isothiazol-5-yl)-8-(methylamino)-2,7-naphthyridin-3-yl)cyclopropanecarboxamide] |
| 100 to 1000 | > 500 | CNc1ncc(C2=CCOC2=O)c2cc(NC(=O)C3CC3)ncc12 [Example 85, N-(8-(methylamino)-5-(2-oxo-2,5-dihydrofuran-3-yl)-2,7-naphthyridin-3-yl)cyclopropanecarboxamide] |
| ≤ 100 | > 500 | CNc1ncc(C2CCOC2=O)c2cc(NC(=O)C3CC3)ncc12 (stereo not shown) [Example 86, N-(8-(methylamino)-5-(2-oxotetrahydrofuran-3-yl)-2,7-naphthyridin-3-yl)cyclopropanecarboxamide] |
| ≤ 100 | > 500 | CNc1ncc(-c2ccn(CC#N)n2)c2cc(NC(=O)C3CC3)ncc12 [Example 87, N-(5-(1-(cyanomethyl)-1H-pyrazol-3-yl)-8-(methylamino)-2,7-naphthyridin-3-yl)cyclopropanecarboxamide] |
| ≤ 100 | > 500 | CNc1ncc(CC(F)(F)F)c2cc(NC(=O)C3CC3)ncc12 [Example 88, N-(8-(methylamino)-5-(2,2,2-trifluoroethyl)-2,7-naphthyridin-3-yl)cyclopropanecarboxamide] |
| 100 to 1000 | > 500 | CNc1ncc(-c2ncccc2OC)c2cc(NC(C)=O)ncc12 [Example 89, N-(5-(3-methoxypyridin-2-yl)-8-(methylamino)-2,7-naphthyridin-3-yl)acetamide] |

Reference: US20240025906A1 (NEURON23, INC., priority 2022, published 2024)
